Format in all cases: cell-based, human
In assay [1] the test system is PAI-1. The assay is described as follows: Western blot of PAI-1 secretion, UACC-903 cells. The following applies: cyclopeptide 5 to 20 μM. Here is the method: FIG. 15: Effect of YSNSG (SEQ ID NO: 3) cyclopeptide on secretion of PAI-1 (plasminogen activator inhibitor-1). The secretion of PAI-1 was analyzed by Western Blot (A) in a medium conditioned by UACC-903 cells control in the absence of peptide (negative control, white bar), in cells treated with linear heptapeptide CNYYSNS (SEQ ID NO: 5) (20 μM) (positive control, black bar) or treated with YSNSG (SEQ ID NO: 3) cyclopeptide at a concentration from 5 μM to 20 μM (grey bars). The conditioned medium was recovered, concentrated and analyzed as described in the methods.
(§1) The samples underwent 10% polyacrylamide gel electrophoresis in the presence of 0.1% SDS then were transferred onto Immobilon-P membranes (Millipore, St Quentin en Yvelines, France). The membranes were saturated with 5% freeze dried skimmed milk, Tween 20 0.1% in a 50 mM Tris-HCl, 150 mM NaCl buffer, pH 7.5 (TBS) for 2 hours at ambient temperature. The membranes were then incubated overnight at 4° C. with anti-MMP-14, anti-PAI-1 and anti-u-PAR antibodies then incubated for one hour at ambient temperature with a secondary antibody (anti-IgG) conjugated with peroxidase. The immune complexes were visualized with an ECL chemoluminescence detection kit.

Assay [2] deals with HUVEC cells. The assay is described as follows: Formation of capillary pseudotubes on Matrigel. The following applies: 20 μM. Here is the method:
The in vitro anti-angiogenic activity of the cyclopeptide YSNSG (SEQ ID NO: 3) was measured on the formation of capillary pseudotubes by endothelial HMEC-1 or HUVEC cells deposited on a Matrigel mat.
A solution of Matrigel (ECM gel: 10 mg/ml) was deposited in a sterile manner in 24-well plates (Nunclon) in an amount of 250 μl per well onto piled ice. Gel formation was obtained by incubating the plate at 37° C. for 30 min. HMEC-1 cells or HUVEC cells at sub-confluence were detached from their plastic culture support by adding trypsin/EDTA then taken up into suspension in the culture medium for endothelial cells and diluted to a concentration of 2×10^5 cells per ml. 100 μl volumes of this cell suspension were deposited on the gel surface. After incubating for 1 hour at 37° C. to allow cell adhesion, the various peptides were added in solution to 400 μl of the culture medium (final concentration 10 or 20 μM). Pseudotube formation was observed under the microscope and photographed, after incubating for 24 hours. Quantification was carried out using image analysis software.

Assay [3] concerns HUVEC cells. Description: HUVEC cell proliferation.
For assay [4], the system named is MT1-MMP. The assay is described as follows: Western blot of proMMP-14 / MMP-14, HUVEC membrane extracts. The following applies: 20 μM. Here is the method: FIG. 19: Effect of YSNSG (SEQ ID NO: 3) cyclopeptide on expression and activation of MMP-14 by HUVEC cells. The expression of proMMP-14 and MMP-14 was studied by Western blot (A). The HUVEC cells were cultivated in the absence (control) or in the presence of 20 μM of YSNSG (SEQ ID NO: 3) cyclopeptide and the corresponding membrane extracts were analyzed. Quantification was carried out using Bio 1D software (B);
as §1

For assay [5], the system named is u-PA. The assay is described as follows: Zymography in the presence of gelatine and plasminogen, HUVEC conditioned medium. The conditions noted are these: 20 μM. How it is done:
FIG. 20: Effect of YSNSG (SEQ ID NO: 3) cyclopeptide on the secretion of plasminogen activators. The secretion of u-PA and t-PA was analyzed by zymography in the presence of gelatine and plasminogen (A) in a medium conditioned by HUVEC cells in the absence (control) or in the presence of 20 μM of cyclopeptide YSNSG (SEQ ID NO: 3). Quantification was carried out using Bio 1D software (B);
To determine the plasminogen activities, conditioned media of UACC-903 cells were analyzed by polyacrylamide gel electrophoresis in the presence of SDS and containing 1 mg/ml of gelatine and 10 μg/ml of plasminogen. After electrophoresis, the gels were incubated overnight at ambient temperature in a 100 mM glycine, 5 mM EDTA, pH 8.0 buffer.

For assay [6], the system named is u-PAR. Description: Western blot of u-PAR, HUVEC cells. The following applies: 20 μM. Here is the method:
FIG. 21: Effect of YSNSG (SEQ ID NO: 3) cyclopeptide on the expression of the u-PA receptor: u-PAR by HUVEC cells. The secretion of u-PAR was analyzed by Western blot (A) in a medium conditioned by HUVEC cells in the absence (control) or in the presence of 20 μM of the cyclopeptide YSNSG (SEQ ID NO: 3). Quantification was carried out using Bio 1D software (B);
as §1

Assay [7] has as its system β1 sub-unit of integrin. Description: β1 integrin immunolabelling, HUVEC cells. The conditions noted are these: 20 μM, 48 h. How it is done: FIG. 23: Effect of YSNSG (SEQ ID NO: 3) cyclopeptide on the distribution of β1 integrin subunits on the surface of HUVEC cells. The cells were cultivated on glass slides in the absence (control) or in the presence of 20 μM of YSNSG (SEQ ID NO: 3) cyclopeptide. After 48 h of incubation, the cells were fixed and incubated in the presence of antibodies directed against the β1 integrin subunit. The slides were observed using a confocal microscope.
The cells were seeded onto sterile glass slides placed in 24-well plates (2×10^4 cells/well) in a suitable medium containing 5% serum in the presence or absence of YSNSG (SEQ ID NO: 3) cyclopeptide. After 24 and 48 hours incubation, the cells were fixed for 15 minutes in methanol. Three washes of 5 minutes in TBS-T were carried out, then the cells were incubated for 30 minutes at ambient temperature in a saturation solution (TBS-T containing 3% BSA). The cells were then incubated for 2 hours at ambient temperature in the presence of primary antibody diluted to 1/100 in TBS-T containing 3% BSA.

Where a SMILES comes first, the peptide text is derived from it.

As for `NC(=O)CC1NC(=O)C(CO)NC(=O)C(Cc2ccc(O)cc2)NC(=O)CNC(=O)C(CO)NC1=O` (stereo not shown) [cyclopeptide YSNSG, cyclopeptide YSNSG (SEQ ID NO: 3)] (cyclo(GYSNS); configuration not given here), the “secretion of PAI-1” value in assay [1] is given as “large increase”. The “inhibition of capillary pseudotube formation” value in assay [2] was found to be 45%. Moreover, in assay [3], the “cell proliferation of HUVEC cells” value is “did not modify”. Further, in assay [4], the “reduction in the activation of MT1-MMP” value was 56%. Besides, in assay [5], the “reduction in the production of u-PA” value is on record as −27%. In addition, the “reduction in the production of u-PAR” value in assay [6] is on record as −49%. Moreover, in assay [7], the “Expression of the β1 sub-unit of integrin at the cellular periphery” value is reported as “enhanced”.
